Earlier results on one compound are cited in patent US6159964A, “Vitronectin receptor antagonists” (SmithKline Beecham Corporation, priority 1999, dated 2000).

In the data set the test system is fibrinogen receptor. The settings on record: template of WO 93/08174.

Regarding `N=C(N)c1ccc(NC(=O)c2ccc3c(c2)CN(CCc2ccccc2)C(=O)C(CC(=O)O)N3)cc1` (racemic) [(R,S)-7-[[[4-(aminoiminomethyl)phenyl]amino]carbonyl]-4-(2-phenylethyl)-1,3,4,5-tetrahydro-3-oxo-2H-1,4-benzodiazepine-2-acetic acid], the “fibrinogen antagonist activity (in words)” value is “potent and selective fibrinogen antagonist”.
